From PubChem BioAssay AID624491 (Broad Institute, 2012)
Activity calls are given as the source filed them.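 How the source made its calls: active means fitted curve crossing a set activation limit at or below the highest valid dose tested; inconclusive means flat fit at 30 to 70% activation, or poor fit; inactive means the rest, including signal decreases.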

System: D54 ERlucT glycosylation luciferase reporter, luminescence, 24 h
Test: blockers of NLG process in reporter cells – D54 ERlucT cells, luminescence, cherry-picks, dose response (AID 624491);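 further: signal gain reflects blocked N-linked glycosylation of a luciferase reporter; actives raise luciferase signal so AC26 marks activators of the reporter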

Row | SMILES | AC26
1 | CCN(CC(=O)Nc1ccccc1-c1ccccc1)Cc1nc2ccccc2c(=O)[nH]1 | 1470 nM
2 | CC(/C=N/NC(=O)c1cc(-c2ccc(C)s2)[nH]n1)=C\c1ccccc1 | 650 nM
3 | COc1ccc(C(=O)Nc2sc(C)c(C)c2CN2CC(C)OC(C)C2)cc1 (configuration not stated) | 659 nM
4 | O=C(NCCCN1CCOCC1)c1cc(-c2ccc(F)cc2)on1 | 14000 nM
5 | Cn1nc(-c2ccc(Cl)cc2)c2cc(C(=O)NC3CC3)sc21 | 6320 nM
6 | CCN(CC)S(=O)(=O)c1ccc(N2CCOCC2)c(NC(=O)c2[nH]c(C)c(C(C)=O)c2C)c1 | 1860 nM
7 | O=C1CCCN1CCCNc1nc(NCc2ccccc2)nc2ccsc12 | 4240 nM
8 | CCOc1ncccc1C(=O)Nc1cc2c(cc1Br)OCCO2 | 7780 nM
9 | CCN(CC)CCOc1ccc2c(c1)C(=NNC(=O)c1ccccn1)c1cc(OCCN(CC)CC)ccc1-2 | 530 nM
10 | O=C1CCCC2=C1C1(CCCCC1)N=C(Nc1nc3ccccc3o1)N2 | 5790 nM
11 | COc1cc2c(cc1OC)C(=O)N1[C@H]3c4cc(Cl)ccc4OC[C@@H]3[C@H](c3ccccc3)[C@]1(C)C(=O)N2 | 609 nM
12 | CC(=O)c1ccc(Nc2nc(-c3sc(C)nc3C)cs2)cc1 | 40.5 nM
13 | c1ccc2c(c1)oc1c(-c3ccc4nccn4c3)cccc12 | 8270 nM
14 | c1ccc(-c2n[nH]c(-c3ccccc3)c2-c2nc3ccccc3[nH]2)cc1 | 4360 nM
15 | O=C(NC1CCCCC1)c1ccc([N+](=O)[O-])o1 | 852 nM
16 | COc1cc(/C=C/C(=O)/C=C(O)/C=C/c2ccc(O)c(OC)c2)ccc1O | 2090 nM
17 | O=C(CSc1c2c(nc3ccc(Cl)cc13)CCCC2)N1CCN(C(=O)c2ccco2)CC1 | 7690 nM
18 | COC(=O)c1ccccc1NC(=O)Cn1c(-c2nonc2N)nc2ccccc21 | 120 nM
19 | Cc1ccc(Nc2nc(-c3sc(C)nc3C)cs2)cc1 | 481 nM
20 | Clc1ccc(CSc2cnnc3ccccc23)cc1Cl | 13500 nM
21 | C#CCCOC(=O)N1C2=NC(C(=O)OC)=C(C(=O)OC)[C@@H]3N(C)c4ccccc4[C@]23C[C@H]1C(=O)OC | 479 nM
22 | Cc1ccc(C)c(NC(=O)Cn2nnc(C(=O)NCc3ccco3)c2N)c1 | 9800 nM

Row | SMILES | AC26
23 | CCOc1ccc(OCC(=O)N(CCC2=CCCCC2)c2c(N)n(Cc3ccccc3)c(=O)[nH]c2=O)cc1 | 4380 nM
24 | CN(CCCNC(=O)CCCOc1cc(=O)n(C)c2ccccc12)Cc1ccccc1 | 5230 nM
25 | O=C(NCC1CCCO1)c1cc(-c2ccccc2)on1 (configuration not stated) | 6450 nM
26 | COc1ccccc1N1CCN(C(=O)c2oc3ccccc3c2C)CC1 | 8000 nM
27 | O=C1c2cccc3cccc(c23)C(=O)N1CC1CCN(CC(O)COCc2ccc3c(c2)OCO3)CC1 (configuration not stated) | > 19500 nM (inactive)
28 | Cc1ccc(OC(=O)CCC(=O)Oc2ccc(C)cc2C)c(C)c1 | > 19500 nM (inactive)
29 | CCCCCCC(=O)N(O)C1CC(=O)N(c2ccc(F)cc2)C1=O (configuration not stated) | 1290 nM
30 | CC(=O)N(C1=C(Cl)C(=O)c2ccccc2C1=O)C1CCCCC1 | 31.1 nM
31 | COc1cc2c(C(=O)N3CCN(c4cccc(Cl)c4)CC3)cn(C)c(=O)c2cc1OC | 3400 nM
32 | Cc1ccc(/C=N/NC(=O)CCn2nc(C)cc2C)c(C)c1 | 5510 nM
33 | O=C(Nc1cccc(F)c1)c1cc(S(=O)(=O)N2CCOCC2)ccc1N1CCCC1 | 947 nM
34 | CCc1nnc2n1N=C(c1ccc(OC)cc1)CS2 | 6840 nM
35 | CC1CN(C(=O)c2cc(-c3ccncc3)nc3ccccc23)CC(C)O1 (configuration not stated) | 2020 nM
36 | CCN(CCCNC(=O)COc1cc(=O)n(CC)c2ccccc12)Cc1ccccc1 | 2530 nM
37 | Cc1cc(NC(=O)CSc2nc3c(C)cccc3cc2C#N)no1 | 3320 nM
38 | COC(=O)c1ccc(/C=C/C(=O)c2ccc(OC)c(OC)c2)cc1 | 4100 nM
39 | COc1ccc(CCn2c(=N)c(C(=O)NCc3ccco3)cc3c(=O)n4ccccc4nc32)cc1OC | 6410 nM
40 | O=C(CCl)Nc1cc(S(=O)(=O)N2CCCCCC2)ccc1Cl | 441 nM
41 | CN(C)CCNc1cccc2sc3ccc(O)cc3c(=O)c12 | 500 nM
42 | CCOC(=O)c1cc2[nH]c3ccccc3c2[n+](-c2ccc([N+](=O)[O-])cc2)c1N | 1930 nM
43 | Cn1c(=O)n(C)c2cc(NC(=O)CCl)ccc21 | 2090 nM
44 | COc1cc(C)cc(C(=O)C=Cc2ccccc2)c1O | 4920 nM

Row | SMILES | AC26
45 | CN(C)c1ccc(/C=C/C(=O)c2ccc(C(C)(C)C)cc2)cc1[N+](=O)[O-] | 5570 nM
46 | CCN(CC)c1ccc(/C=N/NC(=O)c2cnccn2)cc1 | 780 nM
47 | Cc1ccc(C(=O)/C=C/c2ccc(Br)cc2)o1 | 16600 nM
48 | CCCC(=O)Nc1nc2ccc(NC(=O)c3c(F)c(F)c(OC)c(F)c3F)cc2s1 | 974 nM
49 | COc1cc2c(cc1OC)C(c1ccccc1)N(C(=O)c1cccc(S(C)(=O)=O)c1)CC2 (configuration not stated) | 193 nM
50 | C[C@@]12C(=O)Nc3cc(F)c(F)cc3C(=O)N1[C@H]1c3cc(Cl)ccc3OC[C@@H]1[C@@H]2c1ccccc1 | 789 nM
51 | COc1ccc(NC(=O)c2oc3ccccc3c2NC(=O)c2ccco2)cc1 | 11700 nM
52 | NC(=O)CC(NC(=O)Cc1ccc(Cl)cc1)c1ccc(NC2CCCC2)c([N+](=O)[O-])c1 (configuration not stated) | 1840 nM
53 | CCOC(=O)c1cnc2c(ccc3ccccc32)c1NCCCN(C)C | 2050 nM
54 | CCn1c2ccccc2c2cc(NC(=O)CNCc3ccccc3OC)ccc21 | 1360 nM
55 | COc1ccc(-c2ccnc(-c3ccncc3)n2)cc1 | 1390 nM
56 | COc1ccc(CNC(=O)c2cccc3c(-c4cccnc4)coc23)cc1OC | 2690 nM
57 | COc1ccc(-c2n[nH]c3c2CN(C(=O)c2ccc(OC)c(OC)c2)CC3)cc1 | 1760 nM
58 | CN(C)CCNC(=O)c1cccc2nc3c(ccc4ccccc43)nc12 | 719 nM
59 | Cc1nc2ncccn2c1-c1csc(Nc2ccc(N(C)C)cc2)n1 | 31.5 nM
60 | COc1ccc(C(=O)NCCN(C)C)c2nc3ccccc3cc12 | 128 nM
61 | Cc1cccn2c(=O)c3cc(C(=O)NC4CCCC4)c(=N)n(CC4CCCO4)c3nc12 (configuration not stated) | 8180 nM
62 | COc1ccc(C(=O)/C=C/c2ccc(OC)c(O)c2)c(F)c1 | 4860 nM
63 | O=C(Nc1ccccc1N1CCOCC1)c1ccc2nc[nH]c2c1 | 1130 nM
64 | CC(C)(C)c1ccc(OCc2ccc(C(=O)N3CCOCC3)o2)cc1 | 2160 nM
65 | COc1ccc2nc3ccccc3nc2c1NC(=O)c1ccccc1Cl | 11400 nM
66 | Cc1ccc(C)c(NC(=S)NC(NC(=O)Cc2cccc3ccccc23)C(Cl)(Cl)Cl)c1 (configuration not stated) | 1270 nM

Row | SMILES | AC26
67 | O=C(CCl)Nc1ccc(Sc2ccc(NC(=O)CCl)cc2)cc1 | 667 nM
68 | COc1ccc2nc(C)cc(Nc3ccc(N4CCOCC4)cc3)c2c1 | 1260 nM
69 | CCN(CC)CCC(=O)Nc1cccc2c1C(=O)c1ccccc1C2=O | 965 nM
70 | COc1cc(-c2noc(C)c2-c2ccc(N(C)C)nc2)cc(OC)c1OC | 112 nM
71 | COc1ccc(S(=O)(=O)Nc2ccc3c(c2)n(C)c(=O)n3C)cc1C | 9910 nM
72 | Cc1cccc([C@@H]2[C@@H]3C(=O)N(Cc4ccccc4)C(=O)[C@@H]3[C@]3(Cc4ccccc4)C(=O)N(c4cccc(F)c4)C(=O)N23)c1 | 11400 nM
73 | Cc1c(C(=O)OCC(C)C)[nH]c2c1C(=O)CC(c1cccs1)C2 (configuration not stated) | 1170 nM
74 | CC(C)(C)OC(=O)[C@H](Cc1ccccc1)NC(=O)c1nc[nH]c1C(=O)N1CCc2ccccc2C1 | 3820 nM
75 | CCN(CCCNC(=O)CCCOc1cc(=O)n(C)c2ccccc12)Cc1ccccc1 | 3420 nM
76 | COc1ccc2c(c1)C(=O)N1[C@H]3c4cc(Cl)ccc4OC[C@@H]3[C@H](c3ccccc3)[C@]1(C)C(=O)N2 | 1010 nM
77 | CC1(C(=O)NCc2ccco2)Cc2c(-c3ccc(C(N)=O)cc3)ccnc2O1 (configuration not stated) | 1390 nM
78 | CSc1ccc(/C=N/NC(=O)c2ccccc2Cl)cc1 | 3680 nM
79 | Cn1c(-c2ccccc2)c(/C=N/NC(=O)c2ccc(O)cc2)c2ccccc21 | 647 nM
80 | CCOc1cc(C(=O)Nc2ccc(N3CCOCC3)cc2)cc(Br)c1OC | 2770 nM
81 | COc1ccc(C(=O)/C=C/c2ccc(-c3ccccc3)cc2)cc1CSCC(=O)O | 1480 nM
82 | O=C1[C@H]2[C@@H](c3ccc(F)cc3)N3C(=O)N(c4cccc(Cl)c4)C(=O)[C@@]3(Cc3ccccc3)[C@H]2C(=O)N1C1CCCCC1 | 16.4 nM
83 | O=c1[nH]c(CSc2ncnc3sc(-c4ccccc4)cc23)nc2ccccc12 | 4470 nM
84 | CC(=O)Nc1cc(-c2cccc(C(=O)N(C)C)c2)cn2c(-c3cccc(C(=O)N(C)C)c3)cnc12 | 897 nM
85 | CCN(CC)S(=O)(=O)c1cc(NC(=O)Cn2ncc(Cl)c(Cl)c2=O)ccc1C | 1030 nM
86 | COc1ccc(CCn2c(=N)c(C(=O)NCC3CCCO3)cc3c(=O)n4cccc(C)c4nc32)cc1OC (configuration not stated) | 652 nM
87 | COc1cc2c(cc1OC)C(c1cc(Br)ccc1F)N(C(=O)CCl)CC2 (configuration not stated) | 2280 nM
88 | Cc1nn(-c2ccccc2)c2c1CC(=O)Nc1ccccc1-2 | 329 nM

Row | SMILES | AC26
89 | Cc1[nH]c2ccc(C(=O)N3CCN(c4cccc(Cl)c4)CC3)cc2c1C | 8650 nM
90 | COc1cc(-c2coc3c(C(=O)NCc4ccc(OC)c(OC)c4)cccc23)ccc1O | 1220 nM
91 | COc1nc(=O)n(C2C=CC(=O)O2)cc1F (configuration not stated) | 3200 nM
92 | C/C(=N\NC(=O)c1c([N+](=O)[O-])c(C)nn1C)c1ccc(NC(=O)C2CCCC2)cc1 | 498 nM
93 | CC#CCN1c2ccccc2[C@]23C[C@@H](C(=O)OC)N(C(=O)c4cc(C)oc4C)C2=NC(C(=O)OC)=C(C(=O)OC)[C@H]13 | 1790 nM
94 | Cc1ccc2nc(Cl)c(/C=C/C(=O)c3ccco3)cc2c1 | 7890 nM
95 | O=C(/C=C/Sc1ccccc1)c1ccccc1 | 2150 nM
96 | CCOC(=O)c1c(C)c(C(=O)Nc2cc(F)ccc2F)c(C)n1C | 12600 nM
97 | COC(=O)c1[nH]c2cc(OC)c(OC)cc2c1/C=N/Nc1ccccc1 | 6360 nM
98 | Cc1cc(-c2nnc3n2N=C(c2ccc(-c4ccccc4)cc2)CS3)n[nH]1 | 2760 nM
99 | Cc1ccc2c(C)c3ccc4ccccc4c3c[n+]2c1 | 667 nM
100 | COc1ccc(OC)c(Nc2nc(-c3c(C)nc4ncccn34)cs2)c1 | 2730 nM
101 | CC(=O)N1N=C(c2ccc(NS(=O)(=O)c3ccccc3)cc2)CC1c1ccco1 (configuration not stated) | 912 nM
102 | O=C(O)CCC/C=C\C[C@@H]1[C@@H](/C=C/[C@@H](O)COc2cccc(Cl)c2)[C@H](O)C[C@@H]1O | < 1.2 nM
103 | c1ccc(-n2nnnc2-c2cccc3ccccc23)cc1 | 2390 nM
104 | COc1ccccc1CCNCc1ccc(OC)c(OCc2ccccc2)c1 | 994 nM
105 | c1ccc(-c2cc(NCCN3CCCCC3)c3ccccc3n2)cc1 | 2910 nM
106 | COc1ccc(NC(=O)C2Cc3c(-c4cccc(C(C)=O)c4)ccnc3O2)cn1 (configuration not stated) | 203 nM
107 | O=C(CN1C(=O)/C(=C\c2ccc(F)cc2)Oc2ccccc21)N1CCN(c2ccccn2)CC1 | 4740 nM
